From PubChem BioAssay AID1745844 (Carcinogenic Potency Database (CPDB), 2022)
Active and inactive are the calls of the source. The rule behind the calls is not given here.

System: rodent lifetime carcinogenesis bioassay, tumor incidence TD50
Experiment: chronic cancer bioassays in animals – CPDB, compiled studies (AID 1745844)

## OC[P+](CO)(CO)CO
mouse, strain B6C3F1, females, by gavage, site: any site (literature study), lesion: several types, types named in the paper, dosed 103 weeks, study length 104 weeks
  TD50: 908 mg/kg/day (inactive)
mouse, strain B6C3F1, females, by gavage, site: liver, lesion: hepatocellular adenoma + hepatocellular carcinoma + neoplastic nodule, dosed 103 weeks, study length 104 weeks
  TD50: 200 mg/kg/day
mouse, strain B6C3F1, females, by gavage, site: lung, lesion: alveolar/bronchiolar adenoma + alveolar/bronchiolar carcinoma, dosed 104 weeks, study length 105 weeks
  TD50: 234 mg/kg/day
mouse, strain B6C3F1, females, by gavage, site: multiple organs, lesion: malignant lymphoma, mixed type, dosed 104 weeks, study length 105 weeks
  TD50: 15.7 mg/kg/day (inactive)
mouse, strain B6C3F1, males, by gavage, site: any site (literature study), lesion: several types, types named in the paper, dosed 103 weeks, study length 104 weeks
  carcinogen call: negative (inactive)
mouse, strain B6C3F1, males, by gavage, site: any site (literature study), lesion: several types, types named in the paper, dosed 104 weeks, study length 105 weeks
  TD50: 47.3 mg/kg/day
mouse, strain B6C3F1, males, by gavage, site: lung, lesion: alveolar/bronchiolar adenoma + alveolar/bronchiolar carcinoma, dosed 103 weeks, study length 104 weeks
  TD50: 103 mg/kg/day
mouse, strain B6C3F1, males, by gavage, site: lung, lesion: alveolar/bronchiolar adenoma + alveolar/bronchiolar carcinoma, dosed 104 weeks, study length 105 weeks
  TD50: 78.5 mg/kg/day
mouse, strain B6C3F1, males, by gavage, site: multiple organs, lesion: malignant lymphoma, histiocytic type + malignant lymphoma, mixed type + malignant lymphoma, lymphocytic type + malignant lymph, dosed 104 weeks, study length 105 weeks
  TD50: 11.4 mg/kg/day (inactive)
rat, strain Fischer 344, females, by gavage, site: any site (literature study), lesion: several types, types named in the paper, dosed 103 weeks, study length 104 weeks
  TD50: 4.78 mg/kg/day (inactive)
rat, strain Fischer 344, females, by gavage, site: any site (literature study), lesion: several types, types named in the paper, dosed 104 weeks, study length 106 weeks
  TD50: 23.3 mg/kg/day (inactive)
rat, strain Fischer 344, males, by gavage, site: any site (literature study), lesion: several types, types named in the paper, dosed 103 weeks, study length 104 weeks
  TD50: 14.7 mg/kg/day
rat, strain Fischer 344, males, by gavage, site: any site (literature study), lesion: several types, types named in the paper, dosed 104 weeks, study length 106 weeks
  TD50: 1.78 mg/kg/day
rat, strain Fischer 344, males, by gavage, site: liver, lesion: hepatocellular adenoma + hepatocellular carcinoma + neoplastic nodule, dosed 103 weeks, study length 104 weeks
  TD50: 24.5 mg/kg/day
rat, strain Fischer 344, males, by gavage, site: liver, lesion: hepatocellular adenoma + hepatocellular carcinoma + neoplastic nodule, dosed 104 weeks, study length 106 weeks
  TD50: 12.4 mg/kg/day
rat, strain Fischer 344, males, by gavage, site: multiple organs, lesion: mononuclear-cell leukemia, dosed 104 weeks, study length 106 weeks
  TD50: 2.42 mg/kg/day (inactive)
rat, strain Fischer 344, males, by gavage, site: pituitary gland, anterior, lesion: adenoma, NOS + carcinoma, NOS, dosed 104 weeks, study length 106 weeks
  TD50: 3.3 mg/kg/day
rat, strain Fischer 344, males, by gavage, site: pituitary gland, anterior, lesion: adenoma, NOS, dosed 104 weeks, study length 106 weeks
  TD50: 3.56 mg/kg/day
rat, strain Fischer 344, males, by gavage, site: subcutaneous tissue, lesion: fibroma, dosed 103 weeks, study length 104 weeks
  TD50: 24.9 mg/kg/day (inactive)

## O=P(O)(OCC(Br)CBr)OCC(Br)CBr (stereo unspecified)
rat, strain Wistar, females, in feed, site: esophagus, lesion: squamous-cell papilloma, dosed 78 weeks, study length 78 weeks
  TD50: 107 mg/kg/day
rat, strain Wistar, females, in feed, site: esophagus, lesion: squamous-cell papilloma, dosed 96 weeks, study length 101 weeks
  TD50: 394 mg/kg/day
rat, strain Wistar, females, in feed, site: forestomach, lesion: several types, types named in the paper, dosed 78 weeks, study length 78 weeks
  TD50: 19.6 mg/kg/day
rat, strain Wistar, females, in feed, site: forestomach, lesion: several types, types named in the paper, dosed 96 weeks, study length 101 weeks
  TD50: 40 mg/kg/day
rat, strain Wistar, females, in feed, site: forestomach, lesion: squamous-cell carcinoma, dosed 78 weeks, study length 78 weeks
  TD50: 171 mg/kg/day
rat, strain Wistar, females, in feed, site: forestomach, lesion: squamous-cell carcinoma, dosed 96 weeks, study length 101 weeks
  TD50: 301 mg/kg/day
rat, strain Wistar, females, in feed, site: forestomach, lesion: squamous-cell papilloma, dosed 52 weeks, study length 52 weeks
  TD50: 47.6 mg/kg/day
rat, strain Wistar, females, in feed, site: forestomach, lesion: squamous-cell papilloma, dosed 78 weeks, study length 78 weeks
  TD50: 34.5 mg/kg/day
rat, strain Wistar, females, in feed, site: forestomach, lesion: squamous-cell papilloma, dosed 96 weeks, study length 101 weeks
  TD50: 60.3 mg/kg/day
rat, strain Wistar, females, in feed, site: kidney, lesion: renal-cell adenoma, dosed 96 weeks, study length 101 weeks
  TD50: 1250 mg/kg/day
rat, strain Wistar, females, in feed, site: kidney, lesion: renal-cell carcinoma, dosed 96 weeks, study length 101 weeks
  TD50: 1250 mg/kg/day
rat, strain Wistar, females, in feed, site: kidney, lesion: several types, types named in the paper, dosed 96 weeks, study length 101 weeks
  TD50: 608 mg/kg/day
rat, strain Wistar, females, in feed, site: liver, lesion: hepatocellular adenoma, dosed 52 weeks, study length 52 weeks
  TD50: 33.2 mg/kg/day
rat, strain Wistar, females, in feed, site: liver, lesion: hepatocellular adenoma, dosed 78 weeks, study length 78 weeks
  TD50: 20.6 mg/kg/day
rat, strain Wistar, females, in feed, site: liver, lesion: hepatocellular carcinoma, dosed 52 weeks, study length 52 weeks
  TD50: 35.1 mg/kg/day
rat, strain Wistar, females, in feed, site: liver, lesion: hepatocellular carcinoma, dosed 78 weeks, study length 78 weeks
  TD50: 20.1 mg/kg/day
rat, strain Wistar, females, in feed, site: liver, lesion: hepatocellular carcinoma, dosed 96 weeks, study length 101 weeks
  TD50: 37.1 mg/kg/day
rat, strain Wistar, females, in feed, site: liver, lesion: several types, types named in the paper, dosed 52 weeks, study length 52 weeks
  TD50: 11.8 mg/kg/day
rat, strain Wistar, females, in feed, site: liver, lesion: several types, types named in the paper, dosed 78 weeks, study length 78 weeks
  TD50: 11.9 mg/kg/day
rat, strain Wistar, females, in feed, site: liver, lesion: several types, types named in the paper, dosed 96 weeks, study length 101 weeks
  TD50: 27.8 mg/kg/day
rat, strain Wistar, females, in feed, site: small intestine, lesion: adenocarcinoma, dosed 78 weeks, study length 78 weeks
  TD50: 107 mg/kg/day
rat, strain Wistar, females, in feed, site: small intestine, lesion: adenocarcinoma, dosed 96 weeks, study length 101 weeks
  TD50: 179 mg/kg/day
rat, strain Wistar, females, in feed, site: tongue, lesion: several types, types named in the paper, dosed 96 weeks, study length 101 weeks
  TD50: 301 mg/kg/day
rat, strain Wistar, females, in feed, site: tongue, lesion: squamous-cell papilloma, dosed 78 weeks, study length 78 weeks
  TD50: 107 mg/kg/day
rat, strain Wistar, females, in feed, site: tongue, lesion: squamous-cell papilloma, dosed 96 weeks, study length 101 weeks
  TD50: 403 mg/kg/day
rat, strain Wistar, males, in feed, site: esophagus, lesion: several types, types named in the paper, dosed 90 weeks, study length 102 weeks
  TD50: 45.1 mg/kg/day
rat, strain Wistar, males, in feed, site: esophagus, lesion: squamous-cell papilloma, dosed 78 weeks, study length 78 weeks
  TD50: 16.5 mg/kg/day
rat, strain Wistar, males, in feed, site: esophagus, lesion: squamous-cell papilloma, dosed 90 weeks, study length 102 weeks
  TD50: 62.1 mg/kg/day
rat, strain Wistar, males, in feed, site: forestomach, lesion: several types, types named in the paper, dosed 52 weeks, study length 52 weeks
  TD50: 38.1 mg/kg/day
rat, strain Wistar, males, in feed, site: forestomach, lesion: several types, types named in the paper, dosed 90 weeks, study length 102 weeks
  TD50: 37.8 mg/kg/day
rat, strain Wistar, males, in feed, site: forestomach, lesion: squamous-cell carcinoma, dosed 52 weeks, study length 52 weeks
  TD50: 129 mg/kg/day
rat, strain Wistar, males, in feed, site: forestomach, lesion: squamous-cell carcinoma, dosed 90 weeks, study length 102 weeks
  TD50: 979 mg/kg/day
rat, strain Wistar, males, in feed, site: forestomach, lesion: squamous-cell papilloma, dosed 52 weeks, study length 52 weeks
  TD50: 60.9 mg/kg/day
rat, strain Wistar, males, in feed, site: forestomach, lesion: squamous-cell papilloma, dosed 78 weeks, study length 78 weeks
  TD50: 56.1 mg/kg/day
rat, strain Wistar, males, in feed, site: forestomach, lesion: squamous-cell papilloma, dosed 90 weeks, study length 102 weeks
  TD50: 43.5 mg/kg/day
rat, strain Wistar, males, in feed, site: kidney, lesion: renal-cell adenoma, dosed 78 weeks, study length 78 weeks
  TD50: 56.1 mg/kg/day
rat, strain Wistar, males, in feed, site: kidney, lesion: renal-cell adenoma, dosed 90 weeks, study length 102 weeks
  TD50: 45.1 mg/kg/day
rat, strain Wistar, males, in feed, site: kidney, lesion: renal-cell carcinoma, dosed 52 weeks, study length 52 weeks
  TD50: 129 mg/kg/day
rat, strain Wistar, males, in feed, site: kidney, lesion: several types, types named in the paper, dosed 90 weeks, study length 102 weeks
  TD50: 35 mg/kg/day
rat, strain Wistar, males, in feed, site: liver, lesion: hepatocellular adenoma, dosed 78 weeks, study length 78 weeks
  TD50: 28.3 mg/kg/day
rat, strain Wistar, males, in feed, site: liver, lesion: hepatocellular carcinoma, dosed 52 weeks, study length 52 weeks
  TD50: 129 mg/kg/day
rat, strain Wistar, males, in feed, site: liver, lesion: several types, types named in the paper, dosed 52 weeks, study length 52 weeks
  TD50: 129 mg/kg/day
rat, strain Wistar, males, in feed, site: small intestine, lesion: adenocarcinoma, dosed 52 weeks, study length 52 weeks
  TD50: 60.9 mg/kg/day
rat, strain Wistar, males, in feed, site: small intestine, lesion: adenocarcinoma, dosed 90 weeks, study length 102 weeks
  TD50: 79 mg/kg/day
rat, strain Wistar, males, in feed, site: small intestine, lesion: adenoma, dosed 52 weeks, study length 52 weeks
  TD50: 129 mg/kg/day
rat, strain Wistar, males, in feed, site: small intestine, lesion: several types, types named in the paper, dosed 52 weeks, study length 52 weeks
  TD50: 38.1 mg/kg/day
rat, strain Wistar, males, in feed, site: tongue, lesion: squamous-cell carcinoma, dosed 78 weeks, study length 78 weeks
  TD50: 56.1 mg/kg/day
